Results: patent US20240218019A1, “METHODS AND COMPOSITIONS COMPRISING MHC CLASS I PEPTIDES” (BOARD OF REGENTS, THE UNIVERSITY OF TEXAS SYSTEM, priority 2021, published 2024)
“Also recorded” adds a separate entry of the source.

Test system: healthy donor PBMCs
Experiment: IFNγ ELISpot assay with peptide-stimulated healthy donor PBMCs
Assay type: cell-based, human
Details: for ELISpot IFNγ reactivity (immunogenicity) of individual peptides / ELISpot result (positive response) for peptides tested with ELISpot: healthy donor PBMCs; for ELISpot IFNγ reactivity (immunogenicity) of individual peptides: compared to unexposed control cells
Method: FIG. 10A-D. In vitro validation of predicted neoAgs immunogenicity using ELISpot IFNy assay. A) Schematic of peptide pool, stimulation, and cell culture workflow for ELISpot assays. PBMCs were exposed with the individual peptides from the immunogenic pools in the presence of IL-7 for 3 d, followed by expansion of neoAg-specific T cells in the presence of IL-2. On day 13, expanded cells (10^5 cells per well) were plated onto 96-well ELISpot plate coated with an IFNγ antibody and re-stimulated with the respective peptide for 24 h. IFNy secreting cells were analyzed as spot-forming units (SFUs), and the inventors chose ≥15 SFU produced by peptide stimulated cells over DMSO control cells as an indicator of the peptide immunogenicity. B) Quantification of IFNγ-secreting cells (SFU) obtained from ELISpot assay of 12 neoAg-stimulated PBMCs. ConcA and DMSO served as positive and negative controls. […] C) Selection of 110 predicted MHC-I neoAgs from 3 different categories and percentage of immunogenicity in vitro validation. […] “Most Immunogenic” refers to neoAgs selected from the top 100 prediction list of Most Immunogenic MHC-I neoAgs. “Most recurrent” refers to neoAgs selected from the top 100 prediction list of Most Recurrent MHC-I neoAgs. “Others” refers neoAgs that were predicted to have low immunogenicity and no recurrency. A total of 44 MHC-II neoAgs from 2 different categories were tested. […] “Most Immunogenic” refers to neoAgs selected from the top 100 prediction list of Most Immunogenic MHC-II neoAgs. “Most recurrent” refers to neoAgs selected from the top 100 prediction list of Most Recurrent MHC-II neoAgs. D) pMHC-pentamer staining. Expanded Pan-T cells from the healthy human donor were isolated and stained with WDTC1 neoAg peptide/A*02:01 Pentameric complexes and PerCP-conjugated CD8 antibody followed by flow cytometry analysis. Pan T-cells from healthy human donor PBMC (HLA-A*02:01) were isolated using negative magnetic selection. Isolated Pan T cells were stimulated and expanded with Opto-antigen presenting beads conjugated with WDTC1 neoAg-peptide. Viable Pan-T cells were gated based on FSC and SSC scatter and SYTOX Blue dead cells staining after doublet-exclusion. Flow cytometric plots representing CD8 positive (x-axis) and PE-biotin-pMHC-pentamer positive (y-axis) cells; unstained, unstimulated, and WDTC1 Opto-antigen presenting beads stimulated cells (left to right). The percentage of live CD8+ cells and CD8/WDTC1 neoAg-loaded MHC pentamer positive cells are shown.
FIG. 19A-B. In vitro validation of the pooled predicted neoAgs immunogenicity using ELISpot IFNγ assay. A) Schematic of peptide pool, stimulation, and cell culture workflow for ELISpot assays. All 154 peptides were grouped into 15 peptide pools to stimulate PBMCs from 3 healthy human donors as shown in the illustrations. IFNy secreting cells were analyzed as spot-forming units (SFUs), indicative of immunogenicity. B) Quantification of IFNγ-secreting cells (SFU) obtained from ELISpot assay. Pools 2, 3, 5, 6, 9, and 12 produced at least 15 or higher SFU/10^5 cells from two different PBMCs. […] ConcA and DMSO served as positive and negative controls.
Healthy donor PBMCs were stimulated with 15 peptide pools (Supplementary Table 13) to expand the neoAg-specific CD8^+ T-cells followed by quantitative ELISpot assays (FIG. 19A) to measure immunogenicity. […] To ascertain the immunogenicity of individual peptides within each immunogenic pool. a deconvolution protocol (see Methods) was implemented (FIG. 10A). […] Three percent of MHC-I neoAgs not predicted to be highly immunogenic or recurrent (Others). 5% of the top 100 most immunogenic MHC-II predicted neoags, and 6% of the top 100 most recurrent MHC-II predicted neoags elicited an immunogenic response as assessed by ELISpot assays. Additionally. 18% of all of these elispot-reactive neoags were also predicted from the validation set (FIG. 9C). […]

[1] = IFNγ ELISpot, peptide-stimulated healthy donor PBMCs, peptides grouped in 15 pools
[2] = IFNγ ELISpot, peptides marked Tested
[3] = IFNγ ELISpot, peptide-stimulated healthy donor PBMCs
[4] = IFNγ ELISpot, only peptides marked Tested
[5] = IFNγ secretion in healthy donor PBMCs vs unexposed control cells

TQLARFFPI
Elispot reactive [1]: yes

336 (KEALFLQEVFQAERL) [compound 336]
Elispot reactive [2]: No

LAYWEKREAW [compound 177]
ELISPOT result (positive Yes/No) for peptides marked Tested [3]: No

SQVWTAATLR [compound 115]
Elispot reactive [2]: No

YLFAKAYLV [compound 201]
Elispot reactive (IFNγ ELISpot, peptide tested): No

RLYVPLYSSK [compound 37]
Elispot reactive [4]: Yes | ELISPOT result (positive Yes/No) for peptides marked Tested [3]: Yes | Elispot reactive [5]: Yes

FLATSGIDPV [compound 44]
ELISPOT result for peptides marked Tested with ELISPOT (Yes/No) [3]: Yes | Elispot reactive [2]: Yes | Elispot reactive [5]: Yes

FLADSGIDPV [WDTC1, WDTC1 neoAg peptide, HLA-A*02:01 restricted]
ELISpot IFNγ reactivity (immunogenicity) of individual peptides: most reactive (immunogenic); also recorded: immunogenic

FQVHFLKSGGLPLVL [compound 221]
Elispot reactive [4]: Yes | Elispot reactive [5]: Yes

SPAIPPRPL
Elispot reactive [1]: yes

RAWRAGMPL [compound 153]
ELISPOT result (positive Yes/No) for peptides marked Tested [3]: No

HPPPPCLLLL [compound 217]
Elispot reactive (IFNγ ELISpot, peptide tested): No

FLAPCNFYL [compound 16]
Elispot reactive (IFNγ ELISpot, peptide tested): No

YLGTPTWNC [compound 151]
ELISPOT result (positive Yes/No) for peptides marked Tested [3]: Yes | Elispot reactive [5]: Yes

YLGTPTWNC
Elispot reactive [1]: yes

LSSWFSPTV [compound 139]
ELISPOT result (positive Yes/No) for peptides marked Tested [3]: No

RLDKGNFAGA
Elispot reactive [1]: yes

311 (KSLVRLSSCVPVALM) [compound 311]
Elispot reactive [2]: No | ELISpot result (positive yes/no) (peptides marked Tested with ELISpot): No

112 (FLALNQLPQV) [compound 112]
ELISPOT positive (only neoAgs marked Tested with ELISPOT): No

AMAENILAA [compound 150]
ELISPOT result (positive Yes/No) for peptides marked Tested [3]: No

LSAPEKITLF [compound 20]
Elispot reactive [4]: Yes | ELISPOT result (positive Yes/No) for peptides marked Tested [3]: Yes | Elispot reactive [5]: Yes

KTYMEMHY [compound 57]
ELISPOT result (positive Yes/No) for peptides marked Tested [3]: No | ELISPOT result for peptides marked Tested with ELISPOT (Yes/No) [3]: Yes | Elispot reactive [5]: Yes

WSWCGTSQTY [compound 136]
ELISPOT result (positive Yes/No) for peptides marked Tested [3]: Yes | Elispot reactive [5]: Yes

238 (TKFITYRSKKLIQES) [compound 238]
Elispot reactive [4]: No

334 (ALGLRILPPPLTSPS) [compound 334]
Elispot reactive [2]: No

332 (GVRILKLCSKVSFRV) [compound 332]
Elispot reactive [2]: No

RPRMRAASPL [compound 13]
Elispot reactive (IFNγ ELISpot, peptide tested): No

320 (EDMQEVVVHKKRGLF) [compound 320]
Elispot reactive [2]: No

HTCKVCVSF [compound 176]
ELISPOT result (positive Yes/No) for peptides marked Tested [3]: No

SPAIPPRPL [compound 7]
Elispot reactive (IFNγ ELISpot, peptide tested): No

VPTWSARLL [compound 203]
Elispot reactive (IFNγ ELISpot, peptide tested): No

MLLELSPAQL [compound 216]
Elispot reactive (IFNγ ELISpot, peptide tested): No

233 (RHVIKVLLGRKVNWH) [compound 233]
Elispot reactive [4]: No | Elispot reactive [2]: No

LSSPFREQM [compound 38]
Elispot reactive [4]: No | ELISPOT result (positive Yes/No) for peptides marked Tested [3]: No

VMANVLTLNL [compound 157]
ELISPOT result (positive Yes/No) for peptides marked Tested [3]: Yes | Elispot reactive [5]: Yes

IQKSWTATTY [compound 39]
Elispot reactive [4]: Yes | Elispot reactive [5]: Yes

MLLRLNLRK [compound 29]
Elispot reactive [4]: Yes | ELISPOT result (positive Yes/No) for peptides marked Tested [3]: Yes | Elispot reactive [5]: Yes

YVAIRPLPY [compound 173]
ELISPOT result (positive Yes/No) for peptides marked Tested [3]: No

335 (KKSVLKAIEQADLLQ) [compound 335]
Elispot reactive [2]: No

RTLLVTCILY [compound 125]
Elispot reactive [2]: No

QTIEERLTW [compound 156]
ELISPOT result (positive Yes/No) for peptides marked Tested [3]: Yes | Elispot reactive [5]: Yes

324 (FGILNVLEFSSDRKK) [compound 324]
Elispot reactive [2]: No

KTYMEMHY
Elispot reactive [1]: yes

VLEDTLLKI
Elispot reactive [1]: yes

223 (QKKLMLLRLNLRKMC) [compound 223]
ELISpot result (positive response) for peptides tested with ELISpot (IFNγ ELISpot): No | Elispot reactive [4]: No

240 (SINVLCVRASLIEKL) [compound 240]
ELISpot result (positive response) for peptides tested with ELISpot (IFNγ ELISpot): No | Elispot reactive [4]: No

325 (ILVALSWMGGLHSFY) [compound 325]
Elispot reactive [2]: No

NMIQVLMSV [compound 49]
ELISPOT result for peptides marked Tested with ELISPOT (Yes/No) [3]: No

RIPAVLRTEGEPLHT [compound 323]
Elispot reactive [2]: Yes | Elispot reactive [5]: Yes

TQLARFFPI [compound 24]
experimental validation of the neoAg, Yes/NA: Yes | Elispot reactive [4]: Yes | Elispot reactive [2]: Yes | Elispot reactive [5]: Yes

SQNWGSLPL [compound 164]
ELISPOT result (positive Yes/No) for peptides marked Tested [3]: No

TPMHSLLISPM [compound 211]
Elispot reactive (IFNγ ELISpot, peptide tested): No

VVHKKRGLF [compound 127]
Elispot reactive [2]: No

321 (RFPLLMMWRTPMTTR) [compound 321]
Elispot reactive [2]: No

SELLNPVTMNK [compound 205]
Elispot reactive (IFNγ ELISpot, peptide tested): No

RTRSAWGDW [compound 141]
ELISPOT result (positive Yes/No) for peptides marked Tested [3]: No

RIPAVLRTEGEPLHT
Elispot reactive [1]: yes

328 (LLHWRIGGGTPLSIS) [compound 328]
Elispot reactive [2]: No

GLLHAVQEKL [compound 165]
ELISPOT result (positive Yes/No) for peptides marked Tested [3]: No

FLIDDNFKV [SEQ ID NO 10]
ELISpot IFNγ reactivity (immunogenicity) of individual peptides (listed as TTLL10): most reactive (immunogenic); also recorded: immunogenic

LSNVAPPAF [compound 168]
ELISPOT result (positive Yes/No) for peptides marked Tested [3]: Yes | Elispot reactive [5]: Yes

SWMGGLHSFY [compound 121]
Elispot reactive [2]: No

YMMDDLELI [compound 1]
Elispot reactive [4]: No

SQKNITPAI [compound 122]
Elispot reactive [2]: No

VSNIAQAPLY [compound 172]
ELISPOT result (positive Yes/No) for peptides marked Tested [3]: No

TPMHSLLIS [compound 212]
Elispot reactive (IFNγ ELISpot, peptide tested): No

SPSRSTTAPV [compound 134]
ELISPOT result (positive Yes/No) for peptides marked Tested [3]: No

KPIAGRHTL [compound 8]
Elispot reactive (IFNγ ELISpot, peptide tested): No

RSVLEEMGL [compound 58]
ELISPOT result (positive Yes/No) for peptides marked Tested [3]: No | ELISPOT result for peptides marked Tested with ELISPOT (Yes/No) [3]: No

RLDKGNFAGA [compound 215]
Elispot reactive (IFNγ ELISpot, peptide tested): No

KLSSVVPSV [compound 22]
Elispot reactive [4]: No

ILFFFSSK [compound 175]
ELISPOT result (positive Yes/No) for peptides marked Tested [3]: No

222 (KTGLQLLRNHIEELK) [compound 222]
Elispot reactive [4]: No

LSNVAPPAF
Elispot reactive [1]: yes

236 (FEEIIKNDGALLKKK) [compound 236]
Elispot reactive [4]: No

SLWSSMPHGV [compound 23]
Elispot reactive [4]: Yes | Elispot reactive [5]: Yes

KANRYFSPNF [compound 62]
ELISPOT result (positive Yes/No) for peptides marked Tested [3]: Yes | ELISPOT result for peptides marked Tested with ELISPOT (Yes/No) [3]: No | Elispot reactive [5]: Yes

231 (YLRFIKSLAERTMSV) [compound 231]
Elispot reactive [4]: No

SPMITRIL [compound 210]
Elispot reactive (IFNγ ELISpot, peptide tested): No
